The text below walks through data of article PMC5516258, “A Nonredundant Phosphopantetheinyl Transferase, PptA, Is a Novel Antifungal Target That Directs Secondary Metabolite, Siderophore, and Lysine Biosynthesis in Aspergillus fumigatus and Is Critical for Pathogenicity” (mBio, 2017).

Experiment [1] concerns the target T1, PptA (AFPptA; AFPptA-GST) (Aspergillus fumigatus, UniProt B0XWE4).
T1 construct: gene AFUB_024520
Description: fluorescence polarization, transfer of BODIPY-TMR-labelled phosphopantetheine from CoA to AarA. In kind it is biochemical.

Another experiment addresses T2, HS-PPTase (AASDHPPT) (Homo sapiens, UniProt Q9NRN7).
T2 construct: cDNA cloned into pET43.1, E. coli BL21(DE3), Ni-NTA purified
T2 sequence (Q9NRN7 1-309): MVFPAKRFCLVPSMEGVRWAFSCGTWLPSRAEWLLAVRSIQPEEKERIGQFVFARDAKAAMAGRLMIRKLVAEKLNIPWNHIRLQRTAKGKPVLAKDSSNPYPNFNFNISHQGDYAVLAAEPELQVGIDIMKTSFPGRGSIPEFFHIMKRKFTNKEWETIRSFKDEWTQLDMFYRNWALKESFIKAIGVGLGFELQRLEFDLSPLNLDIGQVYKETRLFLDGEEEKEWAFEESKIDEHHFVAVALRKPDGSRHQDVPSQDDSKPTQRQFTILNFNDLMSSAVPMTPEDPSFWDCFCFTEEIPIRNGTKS
Description: fluorescence polarization, transfer of BODIPY-TMR-labelled phosphopantetheine from CoA to human ACP domain. In kind it is biochemical. The note with it: read-out: no inhibition at concentrations up to 200 μM.

Read-outs that look alike come from different tables or passages of the source. Bounds are passed on as bounds.

T1 sequence (B0XWE4 entry or part of it): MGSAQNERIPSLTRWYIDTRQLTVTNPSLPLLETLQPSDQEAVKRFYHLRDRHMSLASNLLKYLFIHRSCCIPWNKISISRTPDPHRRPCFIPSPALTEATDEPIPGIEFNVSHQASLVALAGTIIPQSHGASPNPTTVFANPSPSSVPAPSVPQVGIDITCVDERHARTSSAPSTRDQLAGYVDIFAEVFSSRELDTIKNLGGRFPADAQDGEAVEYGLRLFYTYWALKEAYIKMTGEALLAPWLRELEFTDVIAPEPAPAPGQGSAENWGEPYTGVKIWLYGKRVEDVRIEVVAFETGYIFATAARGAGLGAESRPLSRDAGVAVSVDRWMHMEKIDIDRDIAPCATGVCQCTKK

In the case of `Clc1ccc(C(c2ccc(Cl)cc2)n2cc[n+](CC(OCc3ccc(Cl)cc3Cl)c3ccc(Cl)cc3Cl)c2)cc1` (stereo not shown) [calmidazolium chloride], the IC50 in experiment [1] (acceptor A. fumigatus AarA 750 ng, BODIPY-TMR-CoA, 62.5 mM bis-Tris pH 6.5, 12.5 mM Mg chloride, room temperature, 100 ng PptA, triplicate, doubling dilutions from 100 µM) was 19.2 µM.

Consider `O=Nc1ccc2oc(=O)ccc2c1` [6-nitroso-1,2-benzopyrone], for which the IC50 was more than 200 µM at HS-PPTase (AASDHPPT) and 35.2 µM in experiment [1].

In experiment [1], `N=C1Sc2ccccc2C2=NCCCN12` [PD 404,182] showed an IC50 of 3.9 µM.
